Measured values published in article PMC9221018, “Sulfonamide-Derived Dithiocarbamate Gold(I) Complexes Induce the Apoptosis of Colon Cancer Cells by the Activation of Caspase 3 and Redox Imbalance” (Biomedicines, 2022).
Read-outs that look alike come from different tables or passages of the source.

Tests used:
Caco-2 cells [1] = assay: MTT cytotoxicity assay in undifferentiated Caco-2 cells; type: cell-based, human
Experimental: (§1) The human Caco-2 cell line (TC7 clone) was kindly provided by Dr. Edith Brot-Laroche (Université Pierre et Marie Curie-Paris 6, UMR S 872, Les Cordeliers, France). Human epithelial fibroblast cells (NHDF-Ad, Lonza®®, Porriño, Spain) were kindly provided by Dr. Gracia Mendoza (Aragon Health Research Institute, IIS Aragón, Spain). Caco-2 cells (passages 40–70) and fibroblasts (passages 10–30) were maintained in a humidified atmosphere of 5% CO2 at 37 °C and grown in medium following the method used by Quero et al.. The Caco-2 cells were sub-cultured in 25 cm^2 plastic flasks at a density of 1.2 × 10^4 cells/cm^2, while the fibroblasts were sub-cultured on 75 cm^2 plastic flasks at a density of 1 × 10^4 cells/cm^2. The culture medium was replaced every 2 days.
(§2) The gold complexes were diluted in dimethyl sulfoxide (DMSO) as a 10 mM stock solution, and then diluted in cell culture medium at the desired concentrations.
(§3) For the cytotoxicity screening assays, Caco-2 cells were seeded in 96-well plates at a density of 4 × 10^3 cells/well. The culture medium was replaced with medium containing the drug panel 24 h post-seeding, and the cells were incubated for 24, 48 and 72 h. […] In differentiated Caco-2 and fibroblasts, culture medium containing metal gold complexes was added 15 days post-seeding, and the cells were incubated for 72 h. The antiproliferative effect was measured using an MTT assay, as previously described by Mármol et al.. The absorbance at 540/620 nm was measured using a SPECTROstar Nano (BMG Labtech, Ortenberg, Germany). In order to determine the selectivity index (SI), the IC50 value of the differentiated Caco-2 cells was divided by IC50 value in undifferentiated Caco-2, obtaining the ratio of the normal/cancerous cells’ toxicity.

[2] = system: differentiated Caco-2 cells; assay: MTT cytotoxicity assay in differentiated Caco-2 cells (healthy cell model); type: cell-based, human; conditions: for decrease of cell viability: complexes at their IC50 (1 1.14 μM, 3 1.7 μM, 8 7.22 μM, 9 8.56 μM), 72 h; for IC50: treatment for 72 h
Experimental: as §1, §2, §3

[3] = system: Human epithelial fibroblast cells (NHDF-Ad); assay: MTT viability assay in human epithelial fibroblasts; type: cell-based; conditions: complexes at their IC50 (1 1.14 μM, 3 1.7 μM, 8 7.22 μM, 9 8.56 μM), 72 h
Experimental: as §1, §2, §3

Caco-2 cells [4] = assay: Mitochondrial membrane potential assay (DilC1); type: cell-based, human; conditions: complex 1 1.14 µM 48 h, complex 8 7.22 µM 72 h
Experimental: Caco-2 cells were seeded in 75 cm^2 flasks at a density of 1 × 10^4 cells/cm^2, and the 24-h post-seeding medium was replaced with medium containing the drug panel; it was then incubated for 48 or 72 h. The cells were then washed twice and resuspended in PBS at a concentration of 10^6 cells/mL before incubation with 5 µL of 10 µM 1,1′,3,3,3′-hexamethylindodicarbo-cyanine iodide (DilC1). After 15 min of incubation at 37 °C, 400 µL PBS was added, and the fluorescence was measured by flow cytometry at an excitation wavelength of 633 nm and an emission of 658 nm with a Beckman Coulter Gallios (Brea, CA, USA) equipped with a blue solid diode laser (488 nm) and a red solid diode laser (635 nm).

[5] = target: T1, recombinant human enzyme TrxR1 (Homo sapiens, UniProt Q16881); assay: Thioredoxin reductase 1 (TrxR1) activity assay (DTNB); type: biochemical; conditions: recombinant TrxR1, complexes at their IC50 values (1 1.14 μM, 8 7.22 μM), 5 min incubation
T1 construct: purchased Sigma SRP 6081
T1 sequence (Q16881 161-647 limits assumed): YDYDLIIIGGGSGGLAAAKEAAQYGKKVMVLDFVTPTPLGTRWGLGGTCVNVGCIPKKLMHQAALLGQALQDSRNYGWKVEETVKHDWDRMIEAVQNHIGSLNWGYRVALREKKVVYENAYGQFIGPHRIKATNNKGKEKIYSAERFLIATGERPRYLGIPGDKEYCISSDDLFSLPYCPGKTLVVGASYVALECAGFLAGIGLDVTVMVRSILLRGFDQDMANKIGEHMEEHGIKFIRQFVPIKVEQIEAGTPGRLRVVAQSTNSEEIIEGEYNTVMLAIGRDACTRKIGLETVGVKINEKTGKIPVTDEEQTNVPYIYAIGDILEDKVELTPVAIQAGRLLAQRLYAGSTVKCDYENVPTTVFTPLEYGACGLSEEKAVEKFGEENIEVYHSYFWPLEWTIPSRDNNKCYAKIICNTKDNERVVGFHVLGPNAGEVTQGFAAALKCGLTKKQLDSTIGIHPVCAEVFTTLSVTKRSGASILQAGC
Experimental: The in vitro interaction of metal complexes with the enzyme thioredoxin reductase was analyzed using a thioredoxin reductase assay kit (Sigma, CS0170, St Louis, MO, USA). The procedure instructions in the kit were followed, though the rat liver thioredoxin reductase was replaced with recombinant human enzyme TrxR1 (SRP 6081, Sigma, St Louis, MO, USA). The reaction was initiated by adding DTNB (100 mM), and conversion to TNB^− was monitored at 412 nm every 30 s for 22 min using a SPECTROstar Nano (BMG Labtech, Ortenberg, Germany) multiplate reader. The results were expressed as a percentage of the TrxR activity with respect to the control.

[6] = target: T2, recombinant human carbonic anhydrase IX (Homo sapiens, UniProt Q16790); assay: Carbonic anhydrase IX esterase activity assay (4-NPA); type: biochemical; conditions: 30 μM, 5 min incubation
T2 construct: purchased Sigma SRP6483
Experimental: The in vitro effect of metal complexes on the enzyme carbonic anhydrase IX was analyzed by monitoring conversion of 4-nitrophenyl acetate (4-NPA) to 4-nitrophenol. The tests were carried out in 96-well plates. Gold complexes (4 µL) were incubated with 4 µL recombinant human carbonic anhydrase IX (Sigma SRP6483, St Louis, MO, USA) (50 µg/mL) at 25 °C for 5 min. PBS at pH 7.35 (Sigma D1408, St Louis, MO, USA) was added to reach a final volume of 90 µL. The reaction was started by adding 10 µL 4-NPA (0.5 mM in methanol), and the absorbance at 405 nm was monitored every 30 s for 1 h using a SPECTROstar Nano (BMG Labtech, Ortenberg, Germany) multiplate reader. The results were expressed as a percentage of CA-IX activity with respect to the control. The potency of the inhibtion referred to the incubation in the presence of indisulam (E7070, N-(3-chloro-7-indolyl)-1,4-benzenedisulfonamide) (Sigma SML1225, St Louis, MO, USA), which is a specific inhibitor of carbonic anhydrase isoforms IX and XII.

[7] = 24 h incubation, read-out: IC50 24 h
[8] = 48 h incubation, read-out: IC50 48 h
[9] = 72 h incubation, read-out: IC50 72 h
[10] = treatment for 72 h, read-out: IC50

Row | Compound | IC50 (Caco-2 cells [1]; [7]) | IC50 (Caco-2 cells [1]; [8]) | IC50 (Caco-2 cells [1]; [9]) | IC50 (Caco-2 cells [1]; [10]) | decrease of cell viability [2] | IC50 [2] | decrease of cell viability [3] | mitochondrial depolarization (cells with disturbed MMP) (Caco-2 cells [4]) | decrease in TrxR activity [5] | reduction in the esterase activity of CA [6]
1 | O=S(=O)(NC(=S)[S][Au][PH](c1ccccc1)(c1ccccc1)c1ccccc1)c1ccccc1 [Complex 1, [Au(S2CNHSO2C6H5)(PPh3)]] | 1.92 ± 0.13 µM | 1.38 ± 0.21 µM | 1.14 ± 0.25 µM | 1.14 ± 0.25 µM | did not compromise the viability | 12.7 ± 0.47 µM | did not compromise the viability | induced similar mitochondrial depolarization | around 80% | 48%
2 | [Au(S2CNHSO2-p-Me-C6H4)(IMePropargyl)] [Complex 8] | > 50 µM | 37.4 ± 7.48 µM | 7.22 ± 0.38 µM | 7.22 ± 0.38 µM | did not compromise the viability | 46.6 ± 3.26 µM | did not compromise the viability | induced similar mitochondrial depolarization | around 80% | 31%
